From article PMC8395219, “Comparative Analysis of Single-Molecule Dynamics of TRPV1 and TRPV4 Channels in Living Cells” (International Journal of Molecular Sciences, 2021)

Biological target: T1, TRPV4 (Homo sapiens, UniProt Q9HBA0)
T1 construct: HaloTag fused to the N-terminus of human TRPV4, expressed in TRPV4-KO HEK293 cells
Assay: FLIPR calcium mobilization assay in transfected TRPV4-KO HEK293 cells (agonist dose-response)
Assay type: cell-based

T1 sequence (Q9HBA0 whole entry, the tested form may be a part): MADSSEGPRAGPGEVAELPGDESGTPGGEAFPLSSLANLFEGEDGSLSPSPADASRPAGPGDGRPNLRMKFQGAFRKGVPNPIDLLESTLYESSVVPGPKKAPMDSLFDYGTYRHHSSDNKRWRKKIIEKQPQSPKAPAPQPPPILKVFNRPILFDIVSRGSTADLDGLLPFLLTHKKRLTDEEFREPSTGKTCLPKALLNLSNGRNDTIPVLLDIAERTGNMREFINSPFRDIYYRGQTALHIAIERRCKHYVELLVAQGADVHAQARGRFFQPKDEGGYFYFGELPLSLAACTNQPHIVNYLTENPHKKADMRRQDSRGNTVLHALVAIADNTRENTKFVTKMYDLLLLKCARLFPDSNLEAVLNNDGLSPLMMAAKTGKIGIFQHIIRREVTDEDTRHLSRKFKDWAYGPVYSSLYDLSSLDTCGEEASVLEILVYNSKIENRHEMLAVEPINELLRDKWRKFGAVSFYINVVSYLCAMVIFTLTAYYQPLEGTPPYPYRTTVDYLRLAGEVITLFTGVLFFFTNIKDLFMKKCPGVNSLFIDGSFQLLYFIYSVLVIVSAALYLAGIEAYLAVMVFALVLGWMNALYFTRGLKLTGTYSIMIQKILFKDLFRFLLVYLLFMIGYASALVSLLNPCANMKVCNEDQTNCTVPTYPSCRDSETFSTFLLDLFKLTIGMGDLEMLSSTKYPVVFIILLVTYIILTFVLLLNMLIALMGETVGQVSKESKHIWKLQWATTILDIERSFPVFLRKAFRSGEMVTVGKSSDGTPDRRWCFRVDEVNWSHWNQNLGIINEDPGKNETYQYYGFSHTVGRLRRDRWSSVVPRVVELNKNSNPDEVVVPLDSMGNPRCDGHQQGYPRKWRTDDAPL

`CC(C)C[C@H](NC(=O)c1cc2ccccc2s1)C(=O)N1CCN(C(=O)[C@H](CO)NS(=O)(=O)c2ccc(Cl)cc2Cl)CC1` [GSK1016790A, N-((1S)-1-{[4-((2S)-2-{[(2,4-dichlorophenyl)sulfonyl]amino}-3-hydroxypropanoyl)-1-piperazinyl]carbonyl}-3-methylbutyl)-1-benzothiophene-2-carboxamide] was tested, and the EC50 was 26 nM.
